Literature values as cited in patent US10918602B2, “Compositions and methods for preparing polymeric films loaded with uniformly distributed drug particles” (New Jersey Institute of Technology, priority 2017, dated 2021).

Settings: literature examples

Structure (SMILES)	Diffusional exponent n
CN1C(=O)CN=C(c2ccccc2)c2cc(Cl)ccc21 [diazepam]	0.82
COc1ccc2c(c1)c(CC(=O)O)c(C)n2C(=O)c1ccc(Cl)cc1 [indomethacin]	0.9
